Data taken from patent US20110191867A1.
Where two headings read alike, the source gives them in different places.

Assays:
[1] = system: serum antibodies of test subjects
[2] = system: serum antibodies of test subjects; remark: listed apart in the source
natural human antibodies [3] = assay type: binding
natural human antibodies [4] = system: natural human antibodies
[5] = system: commercial polyclonal antibody from rabbit; test: ELISA control: commercial polyclonal antibody binding to peptide coated on a maleimide plate
Description: A commercial peptide […] (HA11-peptide), which has been used as a recognition tag on recombinant proteins was used as a control and for testing of analysis of binding between a free core peptide and human antibodies. Due to restricted availability of at least N-terminal sequence the peptide would not be very effective in immunization against the viral as therapy. This peptide is known to be antigenic in animals under immunization conditions and antibodies including polyclonals from rabbit, mice etc.

Substance	reaction with serum of test subject [1]	immune response of the 6 sera, order of reactivity (natural human antibodies [3])	immune response of the 6 sera, order of reactivity (natural human antibodies [4])	further results
Biotin-aminocaproyl-CRPKVRDQC [Peptide 3B]	weaker reaction	–	–	serum antibody response ([2]; person S5B, vaccinated against influenza, FIG. 5): unusually high response
Biotin-aminocaproyl-CRPRVRNICG-NH4 [Peptide 1C]	weaker reaction	–	–	comparison of the cyclic and linear peptide, reactivity with sera [1]: more reactive with all subjects except S3B; reactivity with sera of test subjects [1]: Strong responses were observed from the serum of test subjects S5B an S7B
Biotin-aminocaproyl-CRPWVRGVC [Peptide 4B]	–	–	–	antibody binding, cyclic peptide compared with corresponding linear peptide ([2]; sera S1B-S8B, FIG. 8): bind generally more strongly antibodies than the corresponding linear peptide 3
Biotin-aminohexanoyl-SKAYSNC [Peptide P1-N]	–	reacted with sera in the order from strongest to weaker: 6, 3, 4, and 2, while 1 and 5 were weakly or non-reactive	sera 3 and 4 showed strongest immune response before serum 2, while sera 1, 5 and 6 were weakly or non-reactive	–
Biotin-aminohexanoyl-SYACKR [Peptide P2-N]	–	reacted with sera similarily but reactions with serum 5 was weaker and the serum 6 showed the strongest reponse	sera 2 and 5 showed strongest immune response before sera 3, 4 and 6, while serum 1 showed weakest reaction	–
CYPYDVPDYA [HA11-N Cys, commercial peptide used as a recognition tag on recombinant proteins, used as a control]	–	–	–	binding of commercial polyclonal antibody from rabbit to the peptide [5]: effective binding
